Measured values taken from patent US8394786B2, “Quinazoline derivatives” (Janssen Pharmaceutica N.V., priority 2003, dated 2013).

Key:
SKOV3 cells = assay: Serum starved proliferation assay on the ovarian carcinoma SKOV3 cells (C3); format: cell-based; conditions: EGF stimulated (100 ng/ml, 72 hours, serum free) or 72 hours with compounds, MTT cell viability assay; for IC50: Homo sapiens, SK-OV-3, 72 h, read-out: SKOV3 cell (C3): pIC50 (converted)
Description: The ovarian carcinoma cell line (SKOV3) was used in an epidermal growth factor stimulated cell proliferation assay, to assess the inhibitory effect of the compounds on EGF in whole cells.
In a first step the SKOV3 cells were incubated for 24 hours in the presence of 10% FCS serum. In the second step the cells were incubated with the compounds to be tested in a serum free condition (37° C. and 5% (v/v) CO2) and subsequently stimulated for 72 hours with EGF at a final concentration of 100 ng/ml. The effect of the compounds on the EGF stimulation was finally assessed in a standard MTT cell viability assay.
Alternatively, the SKOV3 cells were incubated for 24 hours in the presence of 10% FCS serum. In the second step the cells were incubated for 72 hours with the compounds to be tested and the effect of the compounds on cell proliferation was finally assessed in a standard MTT cell viability assay.

EGFR = EGFR (Homo sapiens, UniProt P00533); assay: In vitro inhibition of EGFR, Flash Plate or glass-fiber filter technology (C2); format: biochemical; set-up: 0.5 μg EGFR-kinase domain/well; conditions: EGFR-kinase domain, 5.0 μM unlabeled ATP; for IC50: read-out: Kinase activity.(C2): pIC50 (converted)
Description: The in vitro inhibition of EGFR was assessed using either the Flash Plate technology or the glass-fiber filter technology as described by Davies, S. P. et al., Biochem J. (2000), 351; p. 95-105. The Flash Plate technology is generally described by B. A. Brown et al. in High Throughput Screening (1997), p. 317-328. Editor(s): Devlin, John P. Publisher: Dekker, New York, N.Y.
In the Flash Plate EGFR kinase reaction assay, a kinase substrate consisting of biotinylated poly(L-glutamic acid-L-tyrosine) (poly(GT)biotin), is incubated with the aforementioned protein in the presence of (^33P) radiolabeled ATP. (^33P) phosphorylation of the substrate is subsequently measured as light energy emitted using a streptavidin-coated Flash Plate (PerkinElmer Life Sciences) by trapping and quantifying the binding of the biotin tagged and radiolabeled substrate.
The EGFR kinase reaction is performed at 30° C. for 60 minutes in a 96-well microtiter FlashPlate (PerkinElmer Life Sciences). For each of the tested compounds a full dose response 1·10^−6M to 1·10^−10M has been performed. IRESSA° and Tarceva™ (erlotinib) were used as reference compounds. The 100 μl reaction volume contains 54.5 mM TrisHCl pH 8.0, 10 mM MgCl2, 100 μM Na3VO4, 5.0 μM unlabeled ATP, 1 mM DTT, 0.009% BSA, 0.8 μCi AT^33P, 0.35 μg/well poly(GT)biotin and 0.5 μg EGFR-kinase domain/well.
The reaction is stopped by aspirating the reaction mixture and washing the plate 3× with 200 μl wash/stop buffer (PBS+100 mM EDTA). After the final wash step 200 μl of wash/stop buffer was added to each well and the amount of phosphorylated (^33P) Poly(GT)biotin determined by counting (30 sec/well) in a microtiterplate scintillation counter.
In the glass-fiber filter technology EGFR kinase reaction assay, a kinase substrate consisting of poly(L-glutamic acid-L-tyrosine) (poly(GT)), is incubated with the aforementioned protein in the presence of (^33P) radiolabeled ATP. (^33P) Phosporylation of the substrate is subsequently measured as radioactivity bound on a glassfiber-filter.
The EGFR kinase reaction is performed at 25° C. for 10 minutes in a 96-well microtiterplate. For each of the tested compounds a full dose response 1·10^−6M to 1·10^−10M has been performed. IRESSA° and Tarceva™ (erlotinib) were used as reference compounds. The 25 μl reaction volume contains 60 mM TrisHCl pH 7.5, 3 mM MgCl2, 3 mM Mn Cl2, 3 μM Na3VO4, 50 μg/ml PEG20000, 5.0 μM unlabeled ATP, 1 mM DTT, 0.1 μCi AT^33P, 62.5 ng/well poly(GT) and 0.5 μg EGFR-kinase domain/well.
The reaction is stopped by adding 5 μl of a 3% phosphoric acid solution. 10 μl of the reaction mixture is then spotted onto a Filtermat A filter (Wallac) and washed 3 times for 5 min. in 75 mM phosphoric acid and 1 time for 5 min. in methanol prior to drying and quantification on the Typhoon (Amersham) using a LE phosphorage storage screen.

SKOV3 cell (C3): pIC50 (SKOV3 cells)	Kinase activity.(C2): pIC50 (EGFR)	IC50 (SKOV3 cells) [nM]	IC50 (EGFR) [nM]	Compound
6.8	6.4			4,6-ethanediylidene-8H-pyrimido[4,5-b][6,1,12,15]benzoxatriazacyclooctadecine-12,15(16H)-dione, 20-chloro-9,10,11,13,14,17,22-heptahydro-23-methoxy-14-methyl- [Compound 139]
7.3	7.2			4,6-ethanediylidene-12H-pyrimido[4,5-b]pyrrolo[2,1-1][6,1,10,13]benzoxatriazacyclohexadecin-12-one, 20-chloro-19-fluoro-8,9,10,11,12a,13,14,15,17,22-decahydro-23-methoxy- [Compound 103]
5.1	7.7			4,6-ethenopyrimido[4,5-b][6,1,9,14]benzoxatriazacycloheptadecine-9,14(8H,15H)-dione, 19-chloro-10,11,12,13,16,21-hexahydro-22-methoxy- [Compound 150]
		288	3.98	COc1cc2ncnc3c2cc1OCCCCNCCc1ccc(Cl)cc1N3 [Compound 32, 4,6-ethanediylidenepyrimido[4,5-b][6,1,11]benzoxadiazacyclopentadecine, 17-chloro-8,9,10,11,12,13,14,19-octahydro-20-methoxy-]
		63.1	501	COc1cc2ncnc3c2cc1OCCNCC(=O)NCCCc1ccc(Cl)cc1N3 [Compound 42, 4,6-ethanediylidenepyrimido[4,5-b][6,1,9,12]benzoxatriazacycloheptadecin-12(13H)-one, 19-chloro-8,9,10,11,14,15,16,21-octahydro-22-methoxy-]
		501	79.4	COc1cc2ncnc3c2cc1OCCN(C(=O)CN(C)CCO)CC(=O)NCCCc1ccc(Cl)cc1N3 [Compound 43, 4,6-ethanediylidenepyrimido[4,5-b][6,1,9,12]benzoxatriazacycloheptadecin-12(13H)-one, 19-chloro-8,9,10,11,14,15,16,21-octahydro-10-[[(2-hydroxyethyl)methylamino]acetyl]-22-methoxy-]
		7940	631	COc1cc2ncnc3c2cc1OCCN(C(=O)CNC(CO)CO)CC(=O)NCCCc1ccc(Cl)cc1N3 [Compound 44, 4,6-ethanediylidenepyrimido[4,5-b][6,1,9,12]benzoxatriazacycloheptadecin-12(13H)-one, 19-chloro-8,9,10,11,14,15,16,21-octahydro-10-[[[2-hydroxy-1-(hydroxymethyl)ethyl]amino]acetyl]-22-methoxy-]
		10000	158	COc1cc2ncnc3c2cc1OCCN(C(=O)CN1CCOC(CO)C1)CC(=O)NCCCc1ccc(Cl)cc1N3 (centres unmarked) [Compound 45, 4,6-ethanediylidenepyrimido[4,5-b][6,1,9,12]benzoxatriazacycloheptadecin-12(13H)-one, 19-chloro-8,9,10,11,14,15,16,21-octahydro-10-[[2-(hydroxymethyl)-4-morpholinyl]acetyl]-22-methoxy-]
		7940	200	COc1cc2ncnc3c2cc1OCCN(C(=O)CNCCc1ccncc1)CC(=O)NCCCc1ccc(Cl)cc1N3 [Compound 46, 4,6-ethanediylidenepyrimido[4,5-b][6,1,9,12]benzoxatriazacycloheptadecin-12(13H)-one, 19-chloro-8,9,10,11,14,15,16,21-octahydro-22-methoxy-10-[[[2-(4-pyridinyl)ethyl]amino]acetyl]-]
		1580	126	COc1cc2ncnc3c2cc1OCCN(C(=O)CN(C)CCN(C)C)CC(=O)NCCCc1ccc(Cl)cc1N3 [Compound 47, 4,6-ethanediylidenepyrimido[4,5-b][6,1,9,12]benzoxatriazacycloheptadecin-12(13H)-one, 19-chloro-10-[[[2-(dimethylamino)ethyl]methylamino]acetyl]-8,9,10,11,14,15,16,21-octahydro-22-methoxy-]
		1580	316	COCCNCC(=O)N1CCOc2cc3c(ncnc3cc2OC)Nc2cc(Cl)ccc2CCCNC(=O)C1 [Compound 48, 4,6-ethanediylidenepyrimido[4,5-b][6,1,9,12]benzoxatriazacycloheptadecin-12(13H)-one, 19-chloro-8,9,10,11,14,15,16,21-octahydro-22-methoxy-10-[[(2-methoxyethyl)amino]acetyl]-]
		794	398	COCCCNCC(=O)N1CCOc2cc3c(ncnc3cc2OC)Nc2cc(Cl)ccc2CCCNC(=O)C1 [Compound 49, 4,6-ethanediylidenepyrimido[4,5-b][6,1,9,12]benzoxatriazacycloheptadecin-12(13H)-one, 19-chloro-8,9,10,11,14,15,16,21-octahydro-22-methoxy-10-[[(3-methoxypropyl)amino]acetyl]-]
		158	79.4	COc1cc2ncnc3c2cc1OCCN(C(=O)CN1CCOCC1)CC(=O)NCCCc1ccc(Cl)cc1N3 [Compound 50, 4,6-ethanediylidenepyrimido[4,5-b][6,1,9,12]benzoxatriazacycloheptadecin-12(13H)-one, 19-chloro-8,9,10,11,14,15,16,21-octahydro-22-methoxy-10-(4-morpholinylacetyl)-]
		100	79.4	COc1cc2ncnc3c2cc1OCCN(C)CC(=O)NCCCc1ccc(Cl)cc1N3 [Compound 52, 4,6-ethanediylidenepyrimido[4,5-b][6,1,9,12]benzoxatriazacycloheptadecin-12(13H)-one, 19-chloro-8,9,10,11,14,15,16,21-octahydro-22-methoxy-10-methyl-]
		501	200	CCN1CCOc2cc3c(ncnc3cc2OC)Nc2cc(Cl)ccc2CCCNC(=O)C1 [Compound 53, 4,6-ethanediylidenepyrimido[4,5-b][6,1,9,12]benzoxatriazacycloheptadecin-12(13H)-one, 19-chloro-10-ethyl-8,9,10,11,14,15,16,21-octahydro-22-methoxy-]
		1260	126	COc1cc2ncnc3c2cc1OCC1CCCN1CC(=O)NCCCc1ccc(Cl)cc1N3 (centres unmarked) [Compound 54, 1,22-ethanediylidene-5H,17H-pyrimido[4,5-b]pyrrolo[2,1-h][6,1,9,12]benzoxatriazacycloheptadecin-14(15H)-one, 7-chloro-10,11,12,13,18,19,19a,20-octahydro-24-methoxy-]
		200	501	COc1cc2ncnc3c2cc1OCCCNCC(=O)NCCCc1ccc(Cl)cc1N3 [Compound 55, 4,6-ethanediylidene-8H-pyrimido[4,5-b][6,1,10,13]benzoxatriazacyclooctadecin-13(14H)-one, 20-chloro-9,10,11,12,15,16,17,22-octahydro-23-methoxy-]
			3980	COc1cc2ncnc3c2cc1OCCCC=CCC(NC(=O)OC(C)(C)C)C(=O)NCc1ccc(Cl)cc1N3 (centres unmarked) [Compound 110, carbamic acid, (20-chloro-9,10,13,14,15,16,17,22-octahydro-23-methoxy-15-oxo-4,6-ethanediylidene-8H-pyrimido[4,5-b][6,1,15]benzoxadiazacyclooctadecin-14-yl)-, 1,1-dimethylethyl ester]
